Experimental data: ChEMBL document CHEMBL1149774, “Synthesis of N-(5,7-diamino-3-phenyl-quinoxalin-2-yl)-3,4,5-substituted anilines and N-[4[(5,7-diamino-3-phenylquinoxalin-2-yl)amino]benzoyl]-l-glutamic acid diethyl ester: evaluation of in vitro anti-cancer and anti-folate activities” (Eur J Med Chem, 2008)

What was measured:
Type in all cases: functional
[1] = test system: HOP-62; assay: Growth inhibition of human HOP62 cells after 48 hrs by SRB staining method; details: HOP-62, 48 h
[2] = test system: NCI-H226; assay: Growth inhibition of human NCI-H226 cells after 48 hrs by SRB staining method; details: NCI-H226, 48 h
[3] = test system: NCI-H23; assay: Growth inhibition of human NCI-H23 cells after 48 hrs by SRB staining method; details: NCI-H23, 48 h
[4] = test system: NCI-H322M; assay: Growth inhibition of human NCI-H322M cells after 48 hrs by SRB staining method
[5] = test system: NCI-H522; assay: Growth inhibition of human NCI-H522 cells after 48 hrs by SRB staining method; details: NCI-H522, 48 h
[6] = test system: HCT-116; assay: Growth inhibition of human HCT116 cells after 48 hrs by SRB staining method; details: HCT-116, 48 h
[7] = test system: KM12; assay: Growth inhibition of human KM12 cells after 48 hrs by SRB staining method; details: KM12, 48 h
[8] = test system: SNB-19; assay: Growth inhibition of human SNB19 cells after 48 hrs by SRB staining method; details: SNB-19, 48 h
[9] = test system: M14; assay: Growth inhibition of human M14 cells after 48 hrs by SRB staining method; details: M14, 48 h
[10] = test system: SK-MEL-28; assay: Growth inhibition of human SK-MEL-28 cells after 48 hrs by SRB staining method; details: SK-MEL-28, 48 h
[11] = test system: SK-MEL-5; assay: Growth inhibition of human SK-MEL-5 cells after 48 hrs by SRB staining method; details: SK-MEL-5, 48 h
[12] = test system: UACC-62; assay: Growth inhibition of human UACC62 cells after 48 hrs by SRB staining method; details: UACC-62, 48 h
[13] = test system: OVCAR-3; assay: Growth inhibition of human OVCAR-3 cells after 48 hrs by SRB staining method; details: OVCAR-3, 48 h
[14] = test system: OVCAR-4; assay: Growth inhibition of human OVCAR4 cells after 48 hrs by SRB staining method; details: OVCAR-4, 48 h
[15] = test system: OVCAR-5; assay: Growth inhibition of human OVCAR5 cells after 48 hrs by SRB staining method; details: OVCAR-5, 48 h
[16] = test system: OVCAR-8; assay: Growth inhibition of human OVCAR8 cells after 48 hrs by SRB staining method; details: OVCAR-8, 48 h
[17] = test system: A498; assay: Growth inhibition of human A498 cells after 48 hrs by SRB staining method; details: A498, 48 h
[18] = test system: ACHN; assay: Growth inhibition of human ACHN cells after 48 hrs by SRB staining method
[19] = test system: CAKI-1; assay: Growth inhibition of human CAKI1 cells after 48 hrs by SRB staining method; details: CAKI-1, 48 h
[20] = test system: RXF 393; assay: Growth inhibition of human RXF393 cells after 48 hrs by SRB staining method; details: RXF 393, 48 h
[21] = test system: SN12C; assay: Growth inhibition of human SN12C cells after 48 hrs by SRB staining method
[22] = test system: TK-10; assay: Growth inhibition of human TK10 cells after 48 hrs by SRB staining method; details: TK-10, 48 h
[23] = test system: UO-31; assay: Growth inhibition of human UO31 cells after 48 hrs by SRB staining method; details: UO-31, 48 h
[24] = test system: PC-3; assay: Growth inhibition of human PC3 cells after 48 hrs by SRB staining method; details: PC-3, 48 h
[25] = test system: MCF7; assay: Growth inhibition of human MCF7 cells after 48 hrs by SRB staining method; details: MCF7, 48 h
[26] = test system: NCI/ADR-RES; assay: Growth inhibition of human NCI/ADR-RES cells after 48 hrs by SRB staining method
[27] = test system: MDA-MB-231; assay: Growth inhibition of human MDA-MB-231 cells after 48 hrs by SRB staining method; details: MDA-MB-231, 48 h
[28] = test system: MDA-MB-435; assay: Growth inhibition of human MDA-MB-435 cells after 48 hrs by SRB staining method; details: MDA-MB-435, 48 h
[29] = test system: A549; assay: Growth inhibition of human A549 cells after 48 hrs by SRB staining method; details: A549, 48 h
[30] = test system: SF-268; assay: Growth inhibition of human SF268 cells after 48 hrs by SRB staining method; details: SF-268, 48 h
[31] = test system: RPMI-8226; assay: Growth inhibition of human RPMI8226 cells after 48 hrs by SRB staining method; details: RPMI-8226, 48 h
[32] = read-out: pLC50 (the source's name) (converted)

Structure (SMILES): Nc1cc(N)c2nc(-c3ccccc3)c(Nc3ccc(F)cc3)nc2c1
- GI50 [1]: 38 µM
- TGI ([1]; read-out: pTGI (converted)): > 100 µM
- GI50 [2]: 17.8 µM
- TGI ([2]; read-out: pTGI (converted)): 47.9 µM
- GI50 [3]: 22.4 µM
- TGI ([3]; read-out: pTGI (converted)): 49 µM
- GI50 [4]: 17 µM
- TGI ([4]; read-out: pTGI (converted)): 35.5 µM
- GI50 [5]: > 100 µM
- TGI ([5]; read-out: pTGI (converted)): > 100 µM
- GI50 [6]: 20 µM
- TGI ([6]; read-out: pTGI (converted)): > 100 µM
- GI50 [7]: 12 µM
- TGI ([7]; read-out: pTGI (converted)): 29.5 µM
- GI50 [8]: 21.9 µM
- TGI ([8]; read-out: pTGI (converted)): 39.8 µM
- GI50 [9]: 16.2 µM
- TGI ([9]; read-out: pTGI (converted)): 43.7 µM
- GI50 [10]: 20.4 µM
- CC50 [10, 32]: 75.9 µM
- TGI ([10]; read-out: pTGI (converted)): 38.9 µM
- GI50 [11]: 14.5 µM
- TGI ([11]; read-out: pTGI (converted)): 33.1 µM
- GI50 [12]: 16.2 µM
- TGI ([12]; read-out: pTGI (converted)): 31.6 µM
- GI50 [13]: 4.68 µM
- TGI ([13]; read-out: pTGI (converted)): 17.8 µM
- GI50 [14]: 13.5 µM
- TGI ([14]; read-out: pTGI (converted)): 49 µM
- GI50 [15]: 38 µM
- TGI ([15]; read-out: pTGI (converted)): > 100 µM
- GI50 [16]: 12.3 µM
- CC50 [16, 32]: 74.1 µM
- TGI ([16]; read-out: pTGI (converted)): 30.2 µM
- GI50 [17]: 17.4 µM
- CC50 [17, 32]: 66.1 µM
- TGI ([17]; read-out: pTGI (converted)): 20 µM
- GI50 [18]: 10.2 µM
- CC50 [18, 32]: 49 µM
- TGI ([18]; read-out: pTGI (converted)): 22.4 µM
- GI50 [19]: 19.1 µM
- CC50 [19, 32]: 85.1 µM
- TGI ([19]; read-out: pTGI (converted)): 40.7 µM
- GI50 [20]: 8.71 µM
- CC50 [20, 32]: 85.1 µM
- TGI ([20]; read-out: pTGI (converted)): 28.8 µM
- GI50 [21]: 15.8 µM
- CC50 [21, 32]: 74.1 µM
- TGI ([21]; read-out: pTGI (converted)): 33.9 µM
- GI50 [22]: 17.4 µM
- CC50 [22, 32]: 74.1 µM
- TGI ([22]; read-out: pTGI (converted)): 35.5 µM
- GI50 [23]: 17 µM
- CC50 [23, 32]: > 100 µM
- TGI ([23]; read-out: pTGI (converted)): 61.7 µM
- GI50 [24]: 11.7 µM
- CC50 [24, 32]: > 100 µM
- TGI ([24]; read-out: pTGI (converted)): > 100 µM
- GI50 [25]: 12.6 µM
- CC50 [25, 32]: > 100 µM
- TGI ([25]; read-out: pTGI (converted)): > 100 µM
- GI50 [26]: 24 µM
- CC50 [26, 32]: > 100 µM
- TGI ([26]; read-out: pTGI (converted)): 57.5 µM
- GI50 [27]: 11 µM
- CC50 [27, 32]: 85.1 µM
- TGI ([27]; read-out: pTGI (converted)): 30.2 µM
- GI50 [28]: 7.41 µM
- CC50 [28, 32]: 50.1 µM
- TGI ([28]; read-out: pTGI (converted)): 20.9 µM
- GI50 [29]: 17.4 µM
- CC50 [29, 32]: > 100 µM
- TGI ([29]; read-out: pTGI (converted)): 44.7 µM
- GI50 [30]: 13.2 µM
- CC50 [30, 32]: > 100 µM
- TGI ([30]; read-out: pTGI (converted)): 40.7 µM
- GI50 [31]: 4.68 µM
- CC50 [31, 32]: > 100 µM
- TGI ([31]; read-out: pTGI (converted)): 34.7 µM
